pIC50: −log10 of the molar value. Where a SMILES comes first, the peptide text is derived from it. Bridges are numbered along the chain shown (N, C = ends). [ ]: non-standard residue; d: D form. The star is where a group is joined. hPhe(3-Cl-4-CF3) = N[C@@H](CCc1ccc(C(F)(F)F)c(Cl)c1)C(=O)O; NPrPhe(4-CF3) = CCCN[C@@H](Cc1ccc(C(F)(F)F)cc1)C(=O)O; NMeGly(cPent) = CN[C@H](C(=O)O)C1CCCC1; Hyp = O=C(O)[C@@H]1C[C@@H](O)CN1; NMeL = CN[C@@H](CC(C)C)C(=O)O; Morpholide = C1CN(*)CCO1; Ac5c = NC1(C(=O)O)CCCC1; Sar = CNCC(=O)O
Columns and labels:
[1] = system: human lung cancer strain NCI-H441; type: cell-based
Outline: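 Step one: dispense the test compound in serial DMSO dilutions. Step three: add the reagent and measure […].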

[2] = target: GDP-bound NRAS wild-type protein (Homo sapiens, UniProt P01111); experiment: Binding to NRAS by surface plasmon resonance (SPR), KD and KD ratio to KRAS
Sequence of GDP-bound NRAS wild-type protein (P01111 whole entry): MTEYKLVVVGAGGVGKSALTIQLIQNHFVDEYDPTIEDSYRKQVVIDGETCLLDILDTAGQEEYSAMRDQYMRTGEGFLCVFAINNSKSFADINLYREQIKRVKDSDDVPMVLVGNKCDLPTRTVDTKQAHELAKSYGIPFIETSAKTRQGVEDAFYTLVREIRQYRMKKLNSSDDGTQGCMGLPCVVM
Outline: (§1)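 Captured GDP-RAS (~100–300 RU) was exposed to increasing compound concentrations, 75 s per step, in running buffer with 10 µM GDP, 10 mM MgCl2 and 4% DMSO at pH 7.4.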

HRAS wild-type protein = HRAS wild-type protein (Homo sapiens, UniProt P01112); experiment: Binding to HRAS by surface plasmon resonance (SPR), KD and KD ratio to KRAS
Sequence of HRAS wild-type protein (P01112 whole entry): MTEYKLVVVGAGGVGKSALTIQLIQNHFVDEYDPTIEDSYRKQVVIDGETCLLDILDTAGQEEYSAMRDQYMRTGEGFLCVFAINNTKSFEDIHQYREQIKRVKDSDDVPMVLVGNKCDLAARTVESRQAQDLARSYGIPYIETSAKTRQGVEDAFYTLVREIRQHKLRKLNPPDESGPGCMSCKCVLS
Outline: as §1

[3] = ratio of KD value for GDP-bound NRAS wild-type protein to KD value for KRAS (SPR)
[4] = ratio of KD value for HRAS wild-type protein to KD value for KRAS (SPR)
[5] = ratio of KD for GDP-bound NRAS wild-type protein to KD for KRAS
[6] = ratio of KD for HRAS wild-type protein to KD for KRAS
[7] = ratio of the KD value with respect to GDP-bound NRAS wild-type protein to the KD value with respect to KRAS
[8] = ratio of the KD value with respect to HRAS wild-type protein to the KD value with respect to KRAS

Structure (SMILES)	pIC50 [1]	NRAS /KRAS [2, 3]	HRAS /KRAS (HRAS wild-type protein; [4])	NRAS /KRAS [2, 5]	HRAS /KRAS (HRAS wild-type protein; [6])	NRAS /KRAS [2, 7]	HRAS /KRAS (HRAS wild-type protein; [8])
CCCN(C)C(=O)[C@@H]1CC(=O)N(C)[C@@H](COC)C(=O)N[C@@H]([C@@H](C)CC)C(=O)N(C)CC(=O)N(C)[C@H]2C/C=C\CCN(C2=O)[C@@H](Cc2ccc(C(F)(F)F)cc2)C(=O)N(C)CC(=O)N[C@@H](CCc2cc(F)c(C(F)(F)F)c(F)c2)C(=O)N2C[C@H](OCC)C[C@H]2C(=O)NC2(CC(F)(F)C2)C(=O)N(C)[C@@H](C2CCCC2)C(=O)N1C [PP1743]	8.29	AA (a compound having 20 or more is denoted as AA)	A (a compound having 10 or more and less than 20 is denoted as A)	–	–	–	–
CCC[C@H]1C(=O)N[C@@H]([C@@H](C)CC)C(=O)N(C)CC(=O)N(C)[C@H]2C/C=C\CCN(C2=O)[C@@H](Cc2ccc(C(F)(F)F)cc2)C(=O)N(C)CC(=O)N[C@@H](CCc2ccc(C(F)(F)F)c(Cl)c2)C(=O)N2CC3(CC3)C[C@H]2C(=O)NC2(CC(C)(C)C2)C(=O)N(C)[C@@H](CC(C)C)C(=O)N(C)[C@H](C(=O)N(C)C)CC(=O)N1C [PP2987]	7.50	–	–	AA (a compound having 20 or more is denoted as AA)	A (a compound having 10 or more and less than 20 is denoted as A)	–	–
CCO[C@@H]1C[C@H]2C(=O)NC3(CC(C)(C)C3)C(=O)N(C)[C@@H](C3CCCC3)C(=O)N(CC)[C@H](C(=O)N(C)C)CC(=O)N(C)[C@@H](CC(C)C)C(=O)N[C@@H]([C@@H](C)CC)C(=O)NCC(=O)N(C)[C@H]3C/C=C\CCN(C3=O)[C@@H](Cc3ccc(C(F)(F)F)cc3)C(=O)N(C)CC(=O)N[C@@H](CCc3cc(F)c(C(F)(F)F)c(F)c3)C(=O)N2C1 [PP1773]	7.40	A (a compound having 10 or more and less than 20 is denoted as A)	A (a compound having 10 or more and less than 20 is denoted as A)	–	–	–	–
CC[C@H](C)[C@@H]1NC(=O)[C@@H]2CCCCCCc3ccc(cc3)C[C@@H](C(=O)N(C)CC(=O)N[C@@H](CCc3ccc(C(F)(F)F)c(OC)c3)C(=O)N3C[C@H](OC(C)C)C[C@H]3C(=O)NC3(CC(C)(C)C3)C(=O)N(C)[C@@H](C3CCCC3)C(=O)N(C)[C@H](C(=O)N(C)C)CC(=O)N2C)N2CC/C=C\C[C@@H](C2=O)N(C)C(=O)CN(C)C1=O [PP3067]	8.96	–	–	A (a compound having 10 or more and less than 20 is denoted as A)	B (a compound having 3 or more and less than 10 is denoted as B)	–	–
CCCN1C(=O)CN(C)C(=O)CN(C)C(=O)[C@H]([C@@H](C)CC)NC(=O)[C@H](CC(C)C)N(C)C(=O)C[C@@H](C(=O)N2CCOCC2)NC(=O)[C@H](C2CCCC2)N(C)C(=O)C2(CCCC2)NC(=O)[C@@H]2C[C@@H](OCC)CN2C(=O)[C@H](CCc2ccc(C(F)(F)F)c(Cl)c2)NC(=O)CN(C)C(=O)[C@@H]1Cc1ccc(C(F)(F)F)cc1 [PP0323] ([NMeL]I[Sar][Sar][NPrPhe(4-CF3)][Sar][hPhe(3-Cl-4-CF3)][Hyp](Et)[Ac5c][NMeGly(cPent)]D-Morpholide; lactam N-11)	7.19	–	–	B (a compound having 3 or more and less than 10 is denoted as B)	B (a compound having 3 or more and less than 10 is denoted as B)	–	–
CCO[C@@H]1C[C@H]2C(=O)NC3(CCC3)C(=O)N(C)[C@@H](C3CCCC3)C(=O)N(C)[C@H](C(=O)N(C)C)CC(=O)N(C)[C@@H](CC3CCCC3)C(=O)N[C@@H]([C@@H](C)CC)C(=O)N(C)CC(=O)N(C)[C@H]3C/C=C\CCN(C3=O)[C@@H](Cc3ccc(F)cc3)C(=O)N(C)CC(=O)N[C@@H](CCc3cc(F)c(C(F)(F)F)c(F)c3)C(=O)N2C1 [PP1531]	7.86	A (a compound having 10 or more and less than 20 is denoted as A)	B (a compound having 3 or more and less than 10 is denoted as B)	–	–	–	–
CCO[C@@H]1C[C@H]2C(=O)NC3(CCC3)C(=O)N(C)[C@@H](C3CCCC3)C(=O)N(C)[C@H](C(=O)N3CCOCC3)CC(=O)N(C)[C@@H](CC(C)(C)C)C(=O)N[C@@H]([C@@H](C)CC)C(=O)N(C)CC(=O)N(C)[C@H]3CCCCN(C3=O)[C@@H](Cc3ccc(C(F)(F)F)cc3)C(=O)N(C)CC(=O)N[C@@H](CCc3cc(F)c(C(F)(F)F)c(F)c3)C(=O)N2C1 [PP0714]	8.29	–	–	–	–	C (A compound having a KD ratio of 0.1 or more and less than 3 is denoted as C)	B (a compound having 3 or more and less than 10 is denoted as B)
CCO[C@@H]1C[C@H]2C(=O)NC3(CC(C)(C)C3)C(=O)N(C)[C@@H](C(CC)CC)C(=O)N(C)[C@H](C(=O)N3CCCC3)CC(=O)N(C)[C@@H](C)C(=O)N[C@@H]([C@@H](C)CC)C(=O)N(C)CC(=O)N(C)[C@H]3C/C=C\CCN(C3=O)[C@@H](Cc3ccc(C)cc3)C(=O)N(C)CC(=O)N[C@@H](CCc3ccc(C(F)(F)F)c(OC)c3)C(=O)N2C1 [PP2169]	7.21	–	–	–	–	AA (a compound having 20 or more is denoted as AA)	A (a compound having 10 or more and less than 20 is denoted as A)
CCO[C@@H]1C[C@H]2C(=O)NC3(CCC3)C(=O)N(C)[C@@H](C3CCCC3)C(=O)N(C)[C@H](C(=O)N(C)C)CC(=O)N(C)[C@@H](COC)C(=O)N[C@@H]([C@@H](C)CC)C(=O)N(C)CC(=O)N(C)[C@H]3C/C=C\CCN(C3=O)[C@@H](Cc3ccc(C(F)(F)F)cc3)C(=O)N(C)CC(=O)N[C@@H](CCc3cc(F)c(C(F)(F)F)c(F)c3)C(=O)N2C1 [PP1113]	7.67	–	–	A (a compound having 10 or more and less than 20 is denoted as A)	A (a compound having 10 or more and less than 20 is denoted as A)	–	–
CCO[C@@H]1C[C@H]2C(=O)NC3(CCC3)C(=O)N(C)[C@@H]([C@@H](C)CC)C(=O)N(C)[C@H](C(=O)N(C)C)CC(=O)N(C)[C@@H](CC)C(=O)N[C@@H]([C@@H](C)CC)C(=O)N(C)CC(=O)N(C)[C@H]3C/C=C\CCN(C3=O)[C@@H](Cc3ccc(C(F)(F)F)cc3)C(=O)N(C)CC(=O)N[C@@H](CCc3cc(F)c(C(F)(F)F)c(F)c3)C(=O)N2C1 [PP1087]	7.39	–	–	A (a compound having 10 or more and less than 20 is denoted as A)	A (a compound having 10 or more and less than 20 is denoted as A)	–	–
CCO[C@@H]1C[C@H]2C(=O)NC3(CC(F)(F)C3)C(=O)N(C)[C@@H](C3CCCC3)C(=O)N(C)[C@H](C(=O)N(C)CC)CC(=O)N(C)[C@@H](CC3CC3)C(=O)N[C@@H]([C@@H](C)CC)C(=O)N(C)CC(=O)N(C)[C@H]3C/C=C\CCN(C3=O)[C@@H](Cc3ccc(C(F)(F)F)cc3)C(=O)N(C)CC(=O)N[C@@H](CCc3cc(F)c(C(F)(F)F)c(F)c3)C(=O)N2C1 [PP1738]	8.29	AA (a compound having 20 or more is denoted as AA)	A (a compound having 10 or more and less than 20 is denoted as A)	–	–	–	–
CC[C@H](C)[C@@H]1NC(=O)[C@H](CC)N(C)C(=O)C[C@@H](C(=O)N(C)C)N(C)C(=O)[C@H](C2CCCC2)N(C)C(=O)C2(CC(C)(C)C2)NC(=O)[C@@H]2C[C@@H](C)CN2C(=O)[C@H](CCc2ccc(C(F)(F)F)c(OC)c2)NC(=O)CN(C)C(=O)[C@H](Cc2ccc(C)cc2)N2CC/C=C\C[C@@H](C2=O)N(C)C(=O)CN(C)C1=O [PP1838]	7.70	A (a compound having 10 or more and less than 20 is denoted as A)	A (a compound having 10 or more and less than 20 is denoted as A)	–	–	–	–
CCO[C@@H]1C[C@H]2C(=O)NC3(CCCC3)C(=O)N(C)[C@@H](C3CCCC3)C(=O)N(C)[C@H](C(=O)N3CCOCC3)CC(=O)N(C)[C@@H](CC)C(=O)N[C@@H]([C@@H](C)CC)C(=O)N(C)CC(=O)N(C)[C@H]3CC(C)=CCN(C3=O)[C@@H](Cc3ccc(C(F)(F)F)cc3)C(=O)N(C)CC(=O)N[C@@H](CCc3cc(F)c(C(F)(F)F)c(F)c3)C(=O)N2C1 [PP1043]	6.41	–	–	C (A compound having a KD ratio of 0.1 or more and less than 3 is denoted as C)	C (A compound having a KD ratio of 0.1 or more and less than 3 is denoted as C)	–	–
CCO[C@@H]1C[C@H]2C(=O)NC3(CCC3)C(=O)N(C)[C@@H](C3CCCC3)C(=O)N(C)[C@H](C(=O)N(C)C)CC(=O)N(C)[C@@H](COC)C(=O)N[C@@H]([C@@H](C)CC)C(=O)N(C)CC(=O)N(C)[C@H]3CCCCCN(C3=O)[C@@H](Cc3ccc(C(F)(F)F)cc3)C(=O)N(C)CC(=O)N[C@@H](CCc3cc(F)c(C(F)(F)F)c(F)c3)C(=O)N2C1 [PP0674]	7.86	–	–	–	–	B (a compound having 3 or more and less than 10 is denoted as B)	B (a compound having 3 or more and less than 10 is denoted as B)
C#CC[C@H]1C(=O)N[C@@H]([C@@H](C)CC)C(=O)N(C)CC(=O)N(C)[C@H]2C/C=C\CCN(C2=O)[C@@H](Cc2ccc(C(F)(F)F)cc2)C(=O)N(C)CC(=O)N[C@@H](CCc2cc(F)c(C(F)(F)F)c(F)c2)C(=O)N2C[C@@H](C)C[C@H]2C(=O)NC2(CC(C)(C)C2)C(=O)N(C)[C@@H](C2CCCC2)C(=O)N(C)[C@H](C(=O)N(C)CC)CC(=O)N1C [PP2075]	7.93	–	–	–	–	A (a compound having 10 or more and less than 20 is denoted as A)	A (a compound having 10 or more and less than 20 is denoted as A)
CCC[C@H]1C(=O)N[C@@H]([C@@H](C)CC)C(=O)N(C2CC2)CC(=O)N(C)[C@H]2C/C=C\CCN(C2=O)[C@@H](Cc2ccc(C(F)(F)F)cc2)C(=O)N(C)CC(=O)N[C@@H](CCc2ccc(C(F)(F)F)c(OC)c2)C(=O)N2C[C@H](OCC)C[C@H]2C(=O)N(C)C2(CCC2)C(=O)N(C)[C@@H](C(CC)CC)C(=O)N(C)[C@H](C(=O)N(C)C)CC(=O)N1C [PP2313]	8.13	–	–	–	–	AA (a compound having 20 or more is denoted as AA)	A (a compound having 10 or more and less than 20 is denoted as A)

— patent EP4603105A1, “PHARMACEUTICAL COMPOSITION CONTAINING CYCLIC COMPOUND HAVING SELECTIVE KRAS INHIBITORY EFFECT AGAINST HRAS AND NRAS” (CHUGAI SEIYAKU KABUSHIKI KAISHA, priority 2022, dated 2024)
